# Experimental data taken from patent publication US6458767B1, “Use of peptides inhibitory for thrombospondin dependent TGF-β activation in the treatment of kidney disease” (The UAB Research Foundation, priority 1994, dated 2002).
# Ends that are not written are not given here.
# What was measured:
# [1] = test system: rats with anti-Thy1 disease; assay: Mesangiolysis, microaneurysm formation and GEN-proliferation in the anti-Thy1 model; assay type: in vivo, rat; details: for Glomerular GEN-proliferation (double staining for RECA-1 and PCNA) / mesangiolysis scores: day three; for mesangiolysis scores: scale 0-IV
# From the text: (§1) Experimental design. Experimental mesangial proliferative glomerulonephritis was induced using the monoclonal mouse anti-Thy1 antibody OX-7. Peptides were continuously infused intravenously (i.v.) via jugular vein using osmotic minipumps starting sixteen hours after disease induction. The effects of the hexapeptide AAWSHW (SEQ ID NO:22) (that interferes with the TSP1-mature TGF-β interaction) or the LSKL-peptide (SEQ ID NO:21) (that blocks the TSP1-LAP interaction) were compared to a control peptide (SLLK) in the anti-Thy1 model. Tissues from different time points (days three, five, eight) of this experiment were analyzed in regard to mesangiolysis, macrophage-influx, MC-proliferation, MC-activation, microaneurysm and matrix formation, GEN proliferation, TSP1, TGF-β1 and 2, as well as TGF-βRI and RII. Functional parameters such as blood pressure, proteinuria, and creatinine clearance were also determined. On day eight, glomerular secretion of active TGF-β was determined in individual animals by incubating isolated glomeruli for twenty-four hours in DMEM and measuring TGF-β activity in glomerular supernatants using the NRK-bioassay.
# (§2) Animal model Experimental mesangial proliferative glomerulonephritis (anti-Thy1 model) was induced in Sprague Dawley rats (180-200 g; Charles River, Sulzfeld, Germany) by a single injection of 1 mg/kg of the mouse monoclonal anti-Thy1 antibody OX-7 (European Collection of Animal Cell Culture, Salisbury, England). In this animal model, complete anti-Thy1 antibody binding occurs within an hour (Johnson et al. (1991) Am. J. Pathol. 138 (2), 313-21). To avoid potential interference of the LAP-peptides with anti-Thy1 antibody binding and subsequent mesangiolysis, the peptide treatment was started sixteen hours after disease induction, when binding of the anti-Thy1 antibody to the mesangium and subsequent mesangiolysis had already occurred. The peptides used in this study were synthesized, purified, and analyzed as described elsewhere (Crawford et al. (1998) Cell 93, 1159-1170).
# (§3) Renal biopsies as described previously (Hugo et al. (1997) J. Clin. Invest. 100, 786-794) were performed on days three and five, and the experiment was finished on day eight. To determine DNA incorporation into proliferating cells, each animal was injected intravenously with BrdU (50 mg/kg bw) ninety minutes before the second survival biopsy was taken on day five (peak of MC proliferation). Renal biopsies were fixed in methyl Carnoy's, 10% formalin and/or OCT and snap frozen. A twenty-four hour urine collection for measurement of protein and creatinine was done from day seven to eight, when maximal proteinuria occurs in this model (unpublished observation). Blood pressure measurements were done twice before and twice after disease induction. In renal biopsies, the frequency of glomerular microaneurysms, the number of infiltrating macrophages, the number of proliferating MC, the expression of the contractile protein α-sm actin as a marker of MC-activation, and the expression of TGF-β1, TGF-β2, TGF-βRI, TGF-βRII, TSP1, as well as of extracellular matrix proteins such as collagen I, collagen IV and fibronectin were determined. For TGF-β activity measurements in individual animals on day eight, glomeruli were isolated by differential sieving (Johnson et al. (1991) Am. J. Pathol. 138 (2), 313-21) and counted using five aliquots. Glomerular isolates were discarded if purity was less than 95%. 8000 glomeruli/ml were incubated in DMEM at 37° C. After a twenty-four hour incubation period, glomerular supernatants were stored by −70° C. until TGF-β activity measurements were done.
# (§4) Peptide infusion. All peptides (at a concentration of 3.5 mg/ml) were continuously infused for seven days via a catheter in the right jugular vein using osmotic minipumps (Alzet Corp./Charles River, Sulzfeld, Germany). […]
# [2] = test system: rats with anti-Thy1 disease; assay: Glomerular extracellular matrix formation (Masson's Trichrome, collagen I, collagen IV, fibronectin stains) in the anti-Thy1 model; assay type: in vivo, rat
# From the text: as §1, §2, §3, §4
# [3] = test system: activation of TGF-β by TSP1; details: background, literature; cited from earlier work
# [4] = test system: rats with anti-Thy1 disease; assay: Functional parameters (proteinuria, creatinine clearance, blood urea nitrogen, systolic blood pressure) in the anti-Thy1 model; assay type: in vivo, rat; details: for Proteinuria (mg/24 hours): day 8 (urine collection day seven to eight); for twenty-four hour proteinuria: days seven to eight; for Blood urea nitrogen: rat, in vivo
# From the text: as §1, §2, §3, §4
# [5] = test system: rats with anti-Thy1 disease; assay: Glomerular immunostaining score for TGF-β1, TGF-β2, TGF-βRI, TGF-βRII and TSP1 in the anti-Thy1 model; assay type: in vivo, rat
# From the text: as §1, §2, §3, §4
# [6] = test system: rats with anti-Thy1 disease; assay: Glomerular MC-proliferation, MC-activation and macrophage influx in the anti-Thy1 model; assay type: in vivo, rat
# From the text: as §1, §2, §3, §4
# TGF-β = assay: Glomerular secretion of active TGF-β (NRK-bioassay of supernatants of isolated glomeruli) in anti-Thy1 rats; assay type: in vivo, rat; details: for Active TGF-β (colonies > 62 um): day 8 glomeruli, 24 h supernatant, NRK-bioassay, continuous i.v. peptide infusion
# From the text: as §1, §2
# as §3, with “After a twenty-four hour incubation period, glomerular supernatants were stored by −70° C. until TGF-β activity measurements were done.” left out
substance,measurement,setting,value
AAWSHW,Glomerular Microaneurysm (in percent),[1]; day 3,12.2 ± 11.6%
same,Glomerular Microaneurysm (in percent),[1]; day 5,15.5 ± 11.8%
same,Glomerular Microaneurysm (in percent),[1]; day 8,1.6 ± 1.8%
same,Glomerular GEN-proliferation (double staining for RECA-1 and PCNA),[1],1.8±0.6
same,mesangiolysis scores,[1],2.5±0.4
same,Matrix Collagen 1 (score 0-4),[2]; day 3,0.1 ± 0.1 score 0-4
same,Matrix Collagen IV (score 0-4),[2]; day 3,1.0 ± 0.5 score 0-4
same,Matrix Fibronectin (score 0-4),[2]; day 3,1.3 ± 0.3 score 0-4
same,Matrix Trichrome (score 0-3),[2]; day 3,0.5 ± 0.3 score 0-3
same,Matrix Collagen 1 (score 0-4),[2]; day 5,0.8 ± 0.6 score 0-4
same,Matrix Collagen IV (score 0-4),[2]; day 5,2.1 ± 0.6 score 0-4
same,Matrix Fibronectin (score 0-4),[2]; day 5,1.9 ± 1.2 score 0-4
same,Matrix Trichrome (score 0-3),[2]; day 5,0.9 ± 0.3 score 0-3
same,Matrix Collagen 1 (score 0-4),[2]; day 8,1.0 ± 0.6 score 0-4
same,Matrix Collagen IV (score 0-4),[2]; day 8,1.3 ± 0.5 score 0-4
same,Matrix Fibronectin (score 0-4),[2]; day 8,1.2 ± 0.8 score 0-4
same,Matrix Trichrome (score 0-3),[2]; day 8,1.4 ± 0.4 score 0-3
same,extracellular matrix formation as determined by Trichrome staining,"[2]; day eight, in words",markedly suppressed
same,"glomerular accumulation of collagen I, collagen IV and fibronectin by immunohistochemistry","[2]; time course of anti-Thy1 disease, in words",reduced glomerular accumulation of all three extracellular matrix proteins
same,block of activation of TGF-β by TSP1,[3],able to block activation of TGF-β by TSP1
same,Proteinuria (mg/24 hours),[4],51 ± 50 mg/24 hours
same,twenty-four hour proteinuria,[4],51±50 mg/twenty-four hours
same,Blood urea nitrogen,[4],23.6 ± 7.1 mg/dL
same,TGF-β1 (score 0-4),[5]; day 3,0.4 ± 0.2 score 0-4
same,TGF-β2 (score 0-4),[5]; day 3,0.4 ± 0.3 score 0-4
same,TGF-βRI (score 0-4),[5]; day 3,0.5 ± 0.3 score 0-4
same,TGF-βRII (score 0-4),[5]; day 3,0.5 ± 0.5 score 0-4
same,TSP I (score 0-4),[5]; day 3,0.6 ± 0.2 score 0-4
same,TGF-β1 (score 0-4),[5]; day 5,1.9 ± 0.9 score 0-4
same,TGF-β2 (score 0-4),[5]; day 5,1.1 ± 0.7 score 0-4
same,TGF-βRI (score 0-4),[5]; day 5,1.9 ± 0.4 score 0-4
same,TGF-βRII (score 0-4),[5]; day 5,1.4 ± 0.6 score 0-4
same,TSP I (score 0-4),[5]; day 5,1.5 ± 0.9 score 0-4
same,TGF-β1 (score 0-4),[5]; day 8,1.6 ± 1.1 score 0-4
same,TGF-β2 (score 0-4),[5]; day 8,0.5 ± 0.4 score 0-4
same,TGF-βRI (score 0-4),[5]; day 8,1.6 ± 0.6 score 0-4
same,TGF-βRII (score 0-4),[5]; day 8,1.2 ± 0.5 score 0-4
same,TSP I (score 0-4),[5]; day 8,0.8 ± 0.7 score 0-4
same,MC-activation α-sm actin (score 0-4),[6]; day 3,1.1 ± 0.5 score 0-4
same,MC-proliferation (OX-7 + /PCNA + cells/glomerulus),[6]; day 3,3.1 ± 0.8 cells/glomerulus
same,Macrophages (ED-1 + cells/glomerulus),[6]; day 3,3.0 ± 1.8 cells/glomerulus
same,MC-activation α-sm actin (score 0-4),[6]; day 5,2.8 ± 0.5 score 0-4
same,MC-proliferation (OX-7 + /BrdU + cells/glomerulus),[6]; day 5,4.6 ± 1.9 cells/glomerulus
same,MC-proliferation (OX-7 + /PCNA + cells/glomerulus),[6]; day 5,8.5 ± 1.6 cells/glomerulus
same,Macrophages (ED-1 + cells/glomerulus),[6]; day 5,0.9 ± 0.5 cells/glomerulus
same,MC-activation α-sm actin (score 0-4),[6]; day 8,2.5 ± 0.4 score 0-4
same,MC-proliferation (OX-7 + /PCNA + cells/glomerulus),[6]; day 8,3.9 ± 0.8 cells/glomerulus
same,Macrophages (ED-1 + cells/glomerulus),[6]; day 8,0.7 ± 0.3 cells/glomerulus
same,MC activation (de novo expression of α-sm-actin),[6]; in words,did not significantly alter
same,Active TGF-β (colonies > 62 um),TGF-β,220 ± 70 colonies > 62 um
same,glomerular secretion of active TGF-β compared to control peptide (SLLK) treated rats,"TGF-β; day eight glomeruli, p<0.01",markedly reduced
"control/SLLK: control peptide SLLK (SEQ ID NO:47), group 1 [reference compound]",Glomerular Microaneurysm (in percent),[1]; day 3,34.0 ± 30.1%
same,Glomerular Microaneurysm (in percent),[1]; day 5,20.6 ± 22.7%
same,Glomerular Microaneurysm (in percent),[1]; day 8,6.0 ± 5.9%
same,Glomerular GEN-proliferation (double staining for RECA-1 and PCNA),[1],2.2 cells/glomerular cross-section
same,mesangiolysis scores,[1],2.7±0.5
same,Matrix Collagen 1 (score 0-4),[2]; day 3,0.1 ± 0.1 score 0-4
same,Matrix Collagen IV (score 0-4),[2]; day 3,1.2 ± 0.4 score 0-4
same,Matrix Fibronectin (score 0-4),[2]; day 3,1.5 ± 0.8 score 0-4
same,Matrix Trichrome (score 0-3),[2]; day 3,0.7 ± 0.3 score 0-3
same,Matrix Collagen 1 (score 0-4),[2]; day 5,2.3 ± 0.5 score 0-4
same,Matrix Collagen IV (score 0-4),[2]; day 5,3.3 ± 0.4 score 0-4
same,Matrix Fibronectin (score 0-4),[2]; day 5,3.2 ± 0.4 score 0-4
same,Matrix Trichrome (score 0-3),[2]; day 5,1.5 ± 0.2 score 0-3
same,Matrix Collagen 1 (score 0-4),[2]; day 8,2.0 ± 0.5 score 0-4
same,Matrix Collagen IV (score 0-4),[2]; day 8,2.6 ± 0.6 score 0-4
same,Matrix Fibronectin (score 0-4),[2]; day 8,2.3 ± 0.9 score 0-4
same,Matrix Trichrome (score 0-3),[2]; day 8,2.3 ± 0.4 score 0-3
same,Proteinuria (mg/24 hours),[4],83 ± 40 mg/24 hours
same,twenty-four hour proteinuria,[4],83±40 mg/twenty-four hours
same,Blood urea nitrogen,[4],33.2 ± 12.7 mg/dL
same,TGF-β1 (score 0-4),[5]; day 3,0.2 ± 0.2 score 0-4
same,TGF-β2 (score 0-4),[5]; day 3,0.2 ± 0.1 score 0-4
same,TGF-βRI (score 0-4),[5]; day 3,0.4 ± 0.2 score 0-4
same,TGF-βRII (score 0-4),[5]; day 3,0.4 ± 0.3 score 0-4
same,TSP I (score 0-4),[5]; day 3,0.2 ± 0.2 score 0-4
same,TGF-β1 (score 0-4),[5]; day 5,2.6 ± 0.6 score 0-4
same,TGF-β2 (score 0-4),[5]; day 5,1.6 ± 0.4 score 0-4
same,TGF-βRI (score 0-4),[5]; day 5,1.9 ± 0.5 score 0-4
same,TGF-βRII (score 0-4),[5]; day 5,1.9 ± 0.5 score 0-4
same,TSP I (score 0-4),[5]; day 5,2.0 ± 0.6 score 0-4
same,TGF-β1 (score 0-4),[5]; day 8,1.5 ± 0.8 score 0-4
same,TGF-β2 (score 0-4),[5]; day 8,1.3 ± 0.8 score 0-4
same,TGF-βRI (score 0-4),[5]; day 8,1.8 ± 0.9 score 0-4
same,TGF-βRII (score 0-4),[5]; day 8,1.3 ± 0.8 score 0-4
same,TSP I (score 0-4),[5]; day 8,0.6 ± 0.3 score 0-4
same,MC-activation α-sm actin (score 0-4),[6]; day 3,0.8 ± 0.4 score 0-4
same,MC-proliferation (OX-7 + /PCNA + cells/glomerulus),[6]; day 3,3.6 ± 0.7 cells/glomerulus
same,Macrophages (ED-1 + cells/glomerulus),[6]; day 3,4.5 ± 1.6 cells/glomerulus
same,MC-activation α-sm actin (score 0-4),[6]; day 5,2.9 ± 0.3 score 0-4
same,MC-proliferation (OX-7 + /BrdU + cells/glomerulus),[6]; day 5,4.7 ± 0.8 cells/glomerulus
same,MC-proliferation (OX-7 + /PCNA + cells/glomerulus),[6]; day 5,9.1 ± 1.5 cells/glomerulus
same,Macrophages (ED-1 + cells/glomerulus),[6]; day 5,1.9 ± 0.5 cells/glomerulus
same,MC-activation α-sm actin (score 0-4),[6]; day 8,2.9 ± 0.5 score 0-4
same,MC-proliferation (OX-7 + /PCNA + cells/glomerulus),[6]; day 8,4.2 ± 0.5 cells/glomerulus
same,Macrophages (ED-1 + cells/glomerulus),[6]; day 8,1.5 ± 0.5 cells/glomerulus
same,Active TGF-β (colonies > 62 um),TGF-β,380 ± 60 colonies > 62 um
